The target in one experiment is T1, BRD2-BD1 (Homo sapiens, UniProt P25440).
T1 construct: human BRD2 (BD1: 65-194; BD2: 347-455); Avi tag (biotinylated); made in house; host or cells: E. coli BL21(DE3)
Kind of experiment: SPR binding of peptides to immobilised biotinylated BET bromodomain. How it is done:
(§1) We next assessed the ability of each of the three lead peptides to bind BRD3-BD1. […] To assess selectivity for other BET BDs, we used SPR to determine the binding affinity of each peptide toward the remaining BDs from BRD2, BRD3, and BRD4 (Fig. 1B). […]
(§2) Peptides were synthesised as C-terminal amides using standard fluorenylmethyloxycarbonyl (Fmoc)-strategy solid-phase chemistry using a Syro I automated synthesiser (Biotage) and NovaPEG Rink Amide resin (Novabiochem). Couplings were performed with HBTU/HOBt (1:1) and 6 equivalents of each amino acid. Double couplings were performed for arginine residues.
(§3) Following the final amino acid coupling reaction, the Fmoc group was removed and resin incubated with N-(chloroacetoxy)succinimide (0.2 M in DMF, 1 h, RT). Resin was washed with DMF (5 times) and DCM (5 times) and dried in vacuo.
(§4) Linear peptides were cleaved from the resin by incubation (3 h, RT) with a trifluoroacetic acid (TFA) cleavage cocktail (TFA/2,2’-(ethylenedioxy)diethanethiol/triisopropyl silane/H2O (92.5:2.5:2.5:2.5)) before filtration, concentration in vacuo and precipitation with ice-cold diethyl ether. Crude peptides were washed with diethyl ether (5 times), dried and resuspended in DMSO. The pH was raised to >8 using triethylamine to allow cyclisation. Following incubation (1 h, RT), peptides were re-acidified with TFA for purification.
(§5) Crude peptides were purified by reverse-phase high-performance liquid chromatography using a Chromolith Prep column (Merck) on a Prominence LC-20AP system (Shimadzu) (Solvent A: 0.1% TFA in H2O, Solvent B: 0.1% TFA in acetonitrile) to >95% purity as determined by mass spectrometry (Fig. S17). Purified peptides were reconstituted in DMSO and concentrations determined from their absorbance at 280 nm in 5% DMSO using predicted extinction coefficients.
(§6) Surface plasmon resonance (SPR)
(§7) Measurements were conducted on a T200 or S200 (GE Healthcare) and data analysed using the Biacore Insight Evaluation Software. Experiments were performed at 4 °C in single cycle kinetics mode. Biotinylated BET bromodomains were immobilised on a CAP chip (GE Healthcare) with a […]
(§8) pH 7.5 was used as the running buffer. […]

In another experiment the target is T2, BRD3-BD1 (Homo sapiens, UniProt Q15059).
T2 construct: BRD3 (BD1: 25-147); Avi tag (biotinylated); made in house; host or cells: E. coli BL21(DE3)
T2 sequence (Q15059 25-147): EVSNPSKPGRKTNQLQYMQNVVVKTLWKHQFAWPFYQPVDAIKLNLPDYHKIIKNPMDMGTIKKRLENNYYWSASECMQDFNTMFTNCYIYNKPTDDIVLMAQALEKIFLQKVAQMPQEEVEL
Described as above. As to conditions: for Kd: gray boxed value: no reproducible signals observed at the concentrations used.
Text: as §1, §5, §6, §7, §8

Another experiment has as its target T3, BRD2-BD2 (Homo sapiens, UniProt P25440).
T3 construct: human BRD2 (BD1: 65-194; BD2: 347-455); Avi tag (biotinylated); made in house; host or cells: E. coli BL21(DE3)
The description is as above.
Text: as §1, §5, §6, §7, §8

For the next experiment, the target named is T4, BRD4-BD2 (Homo sapiens, UniProt O60885).
T4 construct: BRD4 (BD1: 42-168; BD2: 348-464); Avi tag (biotinylated); made in house; host or cells: E. coli BL21(DE3)
The experiment is described as above. How it is done:
as §1, §2, §3, §4, §5, §6, §7, §8

Another experiment concerns the target T5, BRD4-BD1 (Homo sapiens, UniProt O60885).
T5 construct: BRD4 (BD1: 42-168; BD2: 348-464); Avi tag (biotinylated); made in house; host or cells: E. coli Rosetta2(DE3)
The experiment is described as above. How it is done:
as §1, §2, §3, §4, §5, §6, §7, §8

For the next experiment, the target named is T6, BRD3-BD2 (Homo sapiens, UniProt Q15059).
T6 construct: Avi tag (biotinylated); made in house; host or cells: E. coli BL21(DE3)
T6 sequence (Q15059 307-419): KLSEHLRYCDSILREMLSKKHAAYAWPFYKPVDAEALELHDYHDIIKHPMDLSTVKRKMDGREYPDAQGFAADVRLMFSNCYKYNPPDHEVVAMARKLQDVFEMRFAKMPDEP
Described as above. The procedure: as §1, §2, §3, §4, §5, §6, §7, §8

Experiment [1] has as its system BD2 domains (BRD2-BD2, BRD3-BD2, BRD4-BD2). Kind of experiment: SPR binding, stated for the BD2 domains together. More on the design: species or system human. (In general: In SPR one partner is held on a chip, and binding of the other changes the refractive index at the surface.)
Description: Measurements were conducted on a T200 or S200 (GE Healthcare) and data analysed using the Biacore Insight Evaluation Software. Experiments were performed at 4 C in single cycle kinetics mode. Biotinylated BET bromodomains were immobilised on a CAP chip (GE Healthcare) with a
pH 7.5 was used as the running buffer. Between cycles the chip was regenerated following the
The test system of experiment [2] is BD1 domains (BRD2-BD1, BRD3-BD1, BRD4-BD1). Kind of experiment: SPR binding, stated for the BD1 domains together. More on the design: species or system human. As to conditions: for reduction of affinity relative to 3.1B: all three BD1 domains. The procedure:
as §1, §2, §3, §4, §5, §6, §7, §8

[3] abbreviates: gray boxed value: no reproducible signals observed at the concentrations used.
The mark [4] stands for this setting: 4 C, geometric mean and SD of two to five measurements.

From publication PMC7604503, “Cyclic peptides can engage a single binding pocket through highly divergent modes” (Proceedings of the National Academy of Sciences of the …, 2020) come the findings set out here.

Molecules are shown by their SMILES. Where a SMILES comes first, the peptide text is derived from it. Bridges are numbered along the chain shown (N, C = ends).

T1 sequence (P25440 65-194): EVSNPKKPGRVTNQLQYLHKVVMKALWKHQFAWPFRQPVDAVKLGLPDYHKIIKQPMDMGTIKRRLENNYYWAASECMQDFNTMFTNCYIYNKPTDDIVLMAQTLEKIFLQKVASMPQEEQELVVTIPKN
T3 sequence (P25440 347-455): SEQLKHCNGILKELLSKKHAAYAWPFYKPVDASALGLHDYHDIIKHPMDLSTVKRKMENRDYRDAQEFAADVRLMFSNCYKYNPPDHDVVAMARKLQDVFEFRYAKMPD

As for `CC[C@H](C)[C@@H]1NC(=O)[C@H](Cc2c[nH]c3ccccc23)NC(=O)[C@H]([C@@H](C)CC)NC(=O)[C@H](CCCNC(=N)N)NC(=O)[C@H]([C@@H](C)O)NC(=O)[C@H](CC(C)C)NC(=O)[C@H](CCCCNC(C)=O)NC(=O)[C@H]([C@@H](C)O)NC(=O)[C@H](Cc2c[nH]c3ccccc23)NC(=O)[C@H](CCCNC(=N)N)NC(=O)[C@H](CC(C)C)NC(=O)[C@H](Cc2ccc(O)cc2)NC(=O)[C@H]([C@@H](C)O)NC(=O)[C@H](Cc2c[nH]c3ccccc23)NC(=O)CSC[C@@H](C(N)=O)NC(=O)[C@H](CO)NC1=O` [3.1A] ({CH2CO}-WTYLRWTK(Ac)LTRIWISC-NH2; thioether N-16), the “interaction with BRD2-BD1 (in words)” value on BRD2-BD1 is reported as “no observable interaction”.

Take `CC[C@H](C)[C@@H]1NC(=O)[C@H](C)NC(=O)[C@H](CCCCN)NC(=O)[C@H](CCCCNC(C)=O)NC(=O)[C@H](Cc2c[nH]c3ccccc23)NC(=O)CSC[C@@H](C(N)=O)NC(=O)[C@H]([C@@H](C)CC)NC(=O)[C@H](Cc2c[nH]cn2)NC(=O)[C@H](CC(C)C)NC(=O)[C@H]([C@@H](C)O)NC(=O)[C@H](CCCCN)NC(=O)[C@H](CC(C)C)NC(=O)[C@H]([C@@H](C)CC)NC(=O)[C@H](CCCCNC(C)=O)NC(=O)CNC(=O)[C@@H]2CCCN2C(=O)[C@H](CC(C)C)NC1=O` [3.2A] ({CH2CO}-WK(Ac)KAILPGK(Ac)ILKTLHIC-NH2; thioether N-17): the Kd was > 10 µM on BRD3-BD1; > 10 µM on BRD2-BD2 (setting [3]); > 10 µM on BRD4-BD2 (setting [3]); 0.0089 ± 0.02 µM at BRD4-BD1 (setting [4]); > 10 µM on BRD2-BD1 (setting [3]); > 10 µM at BRD3-BD2 (setting [3]). Further, the “binding to BRD3-BD2 (in words)” value on BRD3-BD2 is on record as “strong binding was not observed”.

With `CC[C@H](C)[C@@H]1NC(=O)[C@H](CCCCN)NC(=O)[C@H](CC(C)C)NC(=O)CNC(=O)[C@H](Cc2ccc(O)cc2)NC(=O)[C@H](CCCCNC(C)=O)NC(=O)[C@H](CCCCN)NC(=O)[C@H](Cc2c[nH]c3ccccc23)NC(=O)[C@H](CCC(N)=O)NC(=O)[C@H](CCCCNC(C)=O)NC(=O)[C@H](Cc2c[nH]c3ccccc23)NC(=O)CSC[C@@H](C(N)=O)NC1=O` [3.2C] ({CH2CO}-WK(Ac)QWKK(Ac)YGLKIC-NH2; thioether N-12), the “selectivity between BD2 and BD1 domains” value in experiment [1] is reported as 10- to 100 fold. Moreover, in experiment [1] (read-out: affinities for the BD2 domains), the Kd was in the range of 0.01 to 0.1 µM. For the same compound, the “binding to BD1 domains (in words)” value in experiment [2] is recorded as “did not bind strongly”.

`CC(=O)NCCCC[C@@H]1NC(=O)[C@H](Cc2c[nH]c3ccccc23)NC(=O)CSC[C@@H](C(=O)N[C@@H](Cc2c[nH]c3ccccc23)C(=O)N[C@@H](CC(C)C)C(=O)N[C@@H](CCCCNC(C)=O)C(=O)N[C@@H](CCCNC(=N)N)C(=O)N[C@@H](CCCCNC(C)=O)C(=O)N[C@@H](CC(C)C)C(=O)N[C@@H](CC(C)C)C(=O)N[C@@H](CC(C)C)C(=O)N[C@@H](CCCNC(=N)N)C(=O)N[C@@H](CS)C(N)=O)NC(=O)[C@H](Cc2c[nH]c3ccccc23)NC(=O)[C@H](CC(N)=O)NC1=O` [4.2A] ({CH2CO}-WK(Ac)NWCWLK(Ac)RK(Ac)LLLRC-NH2; thioether N-5 (inferred)): the “binding to BRD3-BD1, fold tighter than to BRD4-BD2” value at BRD3-BD1 amounted to 10 fold. Besides, the “binding to BRD4-BD2, fold tighter than to other BD2 domains” value at BRD4-BD2 was 4- to 8 fold.

As to `CC[C@H](C)[C@@H]1NC(=O)[C@H](CO)NC(=O)[C@@H]2CCCN2C(=O)[C@H](CCCCNC(C)=O)NC(=O)[C@H](CCCNC(=N)N)NC(=O)[C@H](Cc2c[nH]c3ccccc23)NC(=O)[C@H](CCCCNC(C)=O)NC(=O)[C@H](CC(C)C)NC(=O)[C@H](CCCNC(=N)N)NC(=O)[C@H]([C@@H](C)CC)NC(=O)[C@H]([C@@H](C)O)NC(=O)[C@H](Cc2c[nH]cn2)NC(=O)[C@H](Cc2ccc(O)cc2)NC(=O)[C@H](C)NC(=O)[C@H](Cc2c[nH]c3ccccc23)NC(=O)CSC[C@@H](C(N)=O)NC(=O)[C@H](CO)NC1=O` [4.2B] ({CH2CO}-WAYHTIRLK(Ac)WRK(Ac)PSISC-NH2; thioether N-17), the Kd at BRD3-BD1 was > 10 µM; on BRD2-BD2 (setting [4]) it was 0.0027 ± 0.006 µM; at BRD4-BD2 (setting [4]), 0.0011 ± 4e-05 µM; on BRD4-BD1 (setting [3]), > 10 µM; on BRD2-BD1 (setting [4]) it was 0.022 ± 2.8e-05 µM; on BRD3-BD2 (setting [4]), 0.016 ± 0.011 µM. Moreover, in experiment [1], the “selectivity for BD2 domains over BD1 domains (in words)” value was “significant selectivity”.

For the compound `CC[C@H](C)[C@@H]1NC(=O)[C@H]([C@@H](C)O)NC(=O)[C@H](CCCCN)NC(=O)[C@H](Cc2c[nH]c3ccccc23)NC(=O)CSC[C@@H](C(N)=O)NC(=O)[C@H](CCC(N)=O)NC(=O)[C@H](CCCCNC(C)=O)NC(=O)[C@H]([C@@H](C)O)NC(=O)[C@H](CCCNC(=N)N)NC(=O)[C@H](Cc2c[nH]c3ccccc23)NC(=O)[C@H]([C@@H](C)O)NC(=O)[C@H](CCCCNC(C)=O)NC(=O)CNC(=O)[C@H](C)NC1=O` [AcK5→Ala] ({CH2CO}-WKTIAGK(Ac)TWRTK(Ac)QC-NH2; thioether N-14), the “reduction of affinity relative to 3.1B” value in experiment [2] is recorded as ~80 fold.

Regarding `CC[C@H](C)[C@@H]1NC(=O)[C@H]([C@@H](C)O)NC(=O)[C@H](CCCCN)NC(=O)[C@H](Cc2c[nH]c3ccccc23)NC(=O)CSC[C@@H](C(N)=O)NC(=O)[C@H](CCC(N)=O)NC(=O)[C@H](CCCCNC(C)=O)NC(=O)[C@H]([C@@H](C)O)NC(=O)[C@H](CCCNC(=N)N)NC(=O)[C@H](Cc2c[nH]c3ccccc23)NC(=O)[C@H]([C@@H](C)O)NC(=O)[C@H](C)NC(=O)CNC(=O)[C@H](CCCCNC(C)=O)NC1=O` [AcK7→Ala] ({CH2CO}-WKTIK(Ac)GATWRTK(Ac)QC-NH2; thioether N-14), the “reduction of affinity relative to 3.1B” value in experiment [2] was “fourfold”.
